One compound from EPA's ToxValDB 9.5 (doi:10.2903/j.efsa.2015.4194) can be followed below.

Usually NOAEL stands for the highest tested level that showed no adverse finding.

The subject of one data set is Canidae. The conditions noted are these: oral, Dog Other.
Another data set concerns Daphnia magna. Particulars: chronic/long-term; duration: 21 days; reproduction.
The next data set has as its system Bibionidae. Particulars: chronic/long-term; duration: 28 days.
The subject of the next data set is Tagia sp. The conditions noted are these: acute; duration: 14 days; mortality.
The subject of a further data set is Colinus virginianus. Particulars: oral.
The test system of another data set is Apis mellifera. The conditions noted are these: acute, duration: 48 hours, mortality.
The subject of the next data set is Lepomis macrochirus. The conditions noted are these: acute; duration: 96 hours; mortality.

In brackets after ≈: the same amount, converted by molar mass. Bounds are passed on as bounds.

For the compound `CC1(c2ccc(Oc3ccccc3)cc2)OC(=O)N(Nc2ccccc2)C1=O` (centres undefined) [Famoxadone], the LC50 in the data set with Oncorhynchus mykiss (acute, duration: 96 hours, mortality) worked out at 0.011 µg/mL (≈ 0.0294 µM); in the data set with Tagia sp., 470 mg/kg; with Lepomis macrochirus, 0.013 µg/mL (≈ 0.0347 µM). Moreover, the NOEC in the data set with Oncorhynchus mykiss (chronic/long-term, duration: 90 days, growth) came to 0.014 mg/L; in the data set with Daphnia magna, 0.0037 mg/L; with Bibionidae, 0.01 mg/L; in the data set on Colinus virginianus (short-term, diet), 5620 mg/kg-day. For the same compound, the NOAEL stood at 1.2 mg/kg-day in the data set on Canidae (chronic, duration: 1 years, ophthalmoscopic examination); 10 mg/kg-day in the data set on Canidae (subchronic, duration: 90 days, clinical signs); 11.3 mg/kg-day in the data set on Rattus norvegicus (developmental, development). In addition, the LD50 with Colinus virginianus (acute, mortality) was over 2250 mg/kg-day; in the data set on Apis mellifera (dermal) it was over 25 µg/piece; in the data set on Apis mellifera (oral, unspecified) it was over 63 µg/piece; with Rattus norvegicus (acute, mortality) it was over 5000 mg/kg.
